The record followed here is patent publication US10947210B2 (priority 2015, dated 2021).

Each structure is given as a SMILES string. Where two headings read alike, the source gives them in different places. A value given as a limit tells only on which side of the number the result lay.

Assay [1] concerns the target HCV RNA-dependent RNA polymerase (NS5B) (Hepatitis C virus genotype 1b (isolate BK) (HCV), UniProt P26663). Description: RNA-Dependent RNA HCV NS5B (polymerase) Assay and IC50 Determination. In kind it is biochemical. Particulars: purified HCV NS5B polymerase, polyA:U16 substrate, 32P-UTP incorporation. Put shortly:
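Purified NS5B was incubated with 0.5 uM polyA:U16, 10 μM UTP plus ^32P-UTP in 50 mM Hepes-KOH pH 7.5, 5 mM MgCl2, 5 mM DTT, 2% glycerol and 0.01% Triton X-100. Inhibitor reactions ran 60 min at 37° C, and radiolabelled RNA product was quantified after filter capture. IC50 values were obtained from concentration series.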

The test system of assay [2] is HCV subgenomic RNA replicon in Huh-luc/neo-ET cells. Briefly: HCV Replicon Assay and EC50 Determination. Type of assay: cell-based. The following applies: Hepatitis C virus, 72 hours, luciferase reporter activity. The method, then: HCV Replicon Assay and EC50 Determination.
HCV replicon assay is based on the luciferase reporter cell line (Huh-luc/neo-ET). This reporter cell line is a human liver carcinoma cell line (Huh-7) stably transfected with an autonomously replicating bicistronic HCV subgenomic RNA replicon (Lohmann et al., 1999, Science, 285, 110-113). Inhibition of HCV RNA replication was monitored through analysis of reporter luciferase activity. Briefly, HCV replicon cells were incubated with inhibitors for 72 hours at 37° C. After the incubation, duplicate plates were treated and incubated in parallel for assessment of cellular toxicity by XTT staining and anti-HCV activity by measurement of luciferase reporter activity. Either human interferon alpha 2B or ribavirin was used as a reference compound. EC50 values were determined using GraFit (Erithaus software) or Excel.
Table 2 presents EC50 data obtained using this HCV replicaon assay to test representative compounds. Data are presented as follows: “+++” means <0.1 μM; “++” means ≥0.1 μM and <1.0 μM; “+” means ≥1.0 μM.
(In general: In antiviral work, replicon cells carry a viral genome segment that copies itself.)

HCV RNA-dependent RNA polymerase (NS5B), sequence (P26663 2420-3010): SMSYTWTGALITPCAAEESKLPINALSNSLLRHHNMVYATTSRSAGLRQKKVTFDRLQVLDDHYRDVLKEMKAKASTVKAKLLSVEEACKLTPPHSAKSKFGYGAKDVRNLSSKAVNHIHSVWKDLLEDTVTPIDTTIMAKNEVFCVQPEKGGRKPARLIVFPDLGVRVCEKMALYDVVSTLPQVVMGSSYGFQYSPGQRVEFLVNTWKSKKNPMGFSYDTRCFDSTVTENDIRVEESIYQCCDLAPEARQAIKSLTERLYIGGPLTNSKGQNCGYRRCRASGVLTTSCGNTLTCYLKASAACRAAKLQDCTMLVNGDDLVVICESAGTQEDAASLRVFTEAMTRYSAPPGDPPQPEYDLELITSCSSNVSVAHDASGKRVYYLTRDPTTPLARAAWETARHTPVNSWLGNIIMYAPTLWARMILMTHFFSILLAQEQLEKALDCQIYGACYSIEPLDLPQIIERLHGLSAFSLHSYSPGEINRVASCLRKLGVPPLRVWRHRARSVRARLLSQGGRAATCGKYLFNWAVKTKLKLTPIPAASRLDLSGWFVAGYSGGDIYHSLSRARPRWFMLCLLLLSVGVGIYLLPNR

The term IC50 denotes the concentration that gives 50% inhibition. One may read the EC50 as the concentration at which the effect is half-maximal. Read a low EC50 as an effect from little substance. As for `CNC(=O)c1c(-c2ccc(F)cc2)oc2cc(N(CCOCCCc3cccc(C(=O)/C=C(\O)C(=O)O)c3)S(C)(=O)=O)c(C3CC3)cc12` [Compound 22-12, 4-(3-(3-(2-(N-(5-cyclopropyl-2-(4-fluorophenyl)-3-(methylcarbamoyl)benzofuran-6-yl)methylsulfonamido)-ethoxy)-propyl)-phenyl)-2-hydroxy-4-oxobut-2-enoic Acid], the IC50 in assay [1] (read-out: IC50) was above 1 µM. Further, in assay [2], the EC50 was below 100 nM.
As for `CNC(=O)c1c(-c2ccc(F)cc2)oc2cc(N(CCOCCOCc3cccc(C(C)=O)c3)S(C)(=O)=O)c(C3CC3)cc12` [Compound 02-8A, 6-(N-(2-(2-(3-Acetylbenzyloxy)-ethoxy)-ethyl)-methylsulfonamido)-5-cyclopropyl-2-(4-fluorophenyl)-N-methylbenzofuran-3-carboxamide], in assay [1] (IC50 (μM)), the IC50 is above 1 µM. Besides, the EC50 in assay [2] is below 100 nM.
For the compound `CNC(=O)c1c(-c2ccc(F)cc2)oc2cc(N(CC(=O)NCC(=O)NCc3cccc(C(=O)/C=C(\O)C(=O)O)c3)S(C)(=O)=O)c(C3CC3)cc12` [Compound 09-14A, 4-(3-{[2-(2-{[5-Cyclopropyl-2-(4-fluoro-phenyl)-3-methylcarbamoyl-benzofuran-6-yl]-methanesulfonyl-amino}-acetylamino)-acetylamino]-methyl}-phenyl)-2-hydroxy-4-oxo-but-2-enoic Acid], the IC50 in assay [1] (read-out: IC50) fell in the range of 0.1 to 1 µM. Moreover, the EC50 in assay [2] was in the range of 100 to 1000 nM.
As for `CNC(=O)c1c(-c2ccc(F)cc2)oc2cc(N(CCOCCOCc3ccccc3C(=O)O)S(C)(=O)=O)c(C3CC3)cc12` [Compound 06-7A, 2-[2-(2-{[5-Cyclopropyl-2-(4-fluoro-phenyl)-3-methylcarbamoyl-benzofuran-6-yl]-methanesulfonyl-amino}-ethoxy)-ethoxymethyl]-benzoic Acid], the IC50 in assay [1] (read-out: IC50) is 0.1 to 1 µM. The same compound yielded an EC50 in assay [2] below 100 nM.
For `CNC(=O)c1c(-c2ccc(F)cc2)oc2cc(N(CCCCOCCc3ccc(C(=O)O)cc3)S(C)(=O)=O)c(C3CC3)cc12` [Compound 13-8C, 4-(2-(4-(N-(5-cyclopropyl-2-(4-fluorophenyl)-3-(methylcarbamoyl)benzofuran-6-yl)-methylsulfonamido)butoxy)-ethyl)benzoic Acid] the same measures were 0.1 to 1 µM and below 100 nM.
For `CNC(=O)c1c(-c2ccc(F)cc2)oc2cc(N(CCOCCOCc3ccc(C(=O)O)cc3)S(C)(=O)=O)c(C3CC3)cc12` [Compound 06-7B, 4-[2-(2-{[5-Cyclopropyl-2-(4-fluoro-phenyl)-3-methylcarbamoyl-benzofuran-6-yl]-methanesulfonyl-amino}-ethoxy)-ethoxymethyl]-benzoic Acid] the same measures were 0.1 to 1 µM and 100 to 1000 nM.
With `CNC(=O)c1c(-c2ccc(F)cc2)oc2cc(N(CCOCCOCCOCC(=O)NO)S(C)(=O)=O)c(C3CC3)cc12` [Compound 23-6C, 5-Cyclopropyl-2-(4-fluoro-phenyl)-6-({2-[2-(2-hydroxycarbamoylmethoxy-ethoxy)-ethoxy]-ethyl}-methanesulfonyl-amino)-benzofuran-3-carboxylic Acid Methylamide], the IC50 in assay [1] (IC50 (μM)) was in the range of 0.1 to 1 µM. This compound registered an EC50 in assay [2] below 100 nM.
`CNC(=O)c1c(-c2ccc(F)cc2)oc2cc(N(CCOCCCOCc3cccc(C(=O)/C=C(\O)C(=O)O)c3)S(C)(=O)=O)c(C3CC3)cc12` [Compound 03-8B, 4-{3-[3-(2-{[5-Cyclopropyl-2-(4-fluoro-phenyl)-3-methylcarbamoyl-benzofuran-6-yl]-methanesulfonyl-amino}-ethoxy)-propoxymethyl]-phenyl}-2-hydroxy-4-oxo-but-2-enoic Acid]: in assay [1] (read-out: IC50), the IC50 is above 1 µM. Besides, the concentration for a half-maximal effect (EC50) in assay [2] was below 100 nM.
Turning to `CNC(=O)c1c(-c2ccc(F)cc2)oc2cc(N(CCOCCOCCOCCO)S(C)(=O)=O)c(C3CC3)cc12` [Compound 04-5, 5-Cyclopropyl-2-(4-fluorophenyl)-6-(N-(2-(2-(2-(2-hydroxyethoxy)-ethoxy)-ethoxy)-ethyl) Methylsulfonamido)-N-methylbenzofuran-3-carboxamide], the IC50 in assay [1] (IC50 (μM)) is above 1 µM. The same compound gave an EC50 in assay [2] of 100 to 1000 nM.
Regarding `CNC(=O)c1c(-c2ccc(F)cc2)oc2cc(N(CCCCCCCc3ccc(C(=O)O)cc3)S(C)(=O)=O)c(C3CC3)cc12` [Compound 13-8D, 4-(7-{[5-Cyclopropyl-2-(4-fluoro-phenyl)-3-methylcarbamoyl-benzofuran-6-yl]-methanesulfonyl-amino}-heptyl)-benzoic Acid], the IC50 in assay [1] (read-out: IC50) was in the range of 0.1 to 1 µM. The EC50 in assay [2] is below 100 nM.
In the case of `CNC(=O)c1c(-c2ccc(F)cc2)oc2cc(N(CCOCCOCc3ccc(C(=O)/C=C(\O)C(=O)O)cc3)S(C)(=O)=O)c(C3CC3)cc12` [Compound 02-10F, 4-{4-[2-(2-{[5-Cyclopropyl-2-(4-fluoro-phenyl)-3-methylcarbamoyl-benzofuran-6-yl]-methanesulfonyl-amino}-ethoxy)-ethoxymethyl]-phenyl}-2-hydroxy-4-oxo-but-2-enoic Acid], in assay [1] (read-out: IC50), the IC50 was above 1 µM. In assay [2], this compound displayed an EC50 below 100 nM.
For `CNC(=O)c1c(-c2ccc(F)cc2)oc2cc(N(CCOCCOCCOCCOCCOCCOCc3cccc(C(=O)/C=C(\O)C(=O)O)c3)S(C)(=O)=O)c(C3CC3)cc12` [Compound 02-10E, 4-(3-{2-[2-(2-{2-[2-(2-{[5-Cyclopropyl-2-(4-fluoro-phenyl)-3-methylcarbamoyl-benzofuran-6-yl]-methanesulfonyl-amino}-ethoxy)-ethoxy]-ethoxy}-ethoxy)-ethoxy]-ethoxymethyl}-phenyl)-2-hydroxy-4-oxo-but-2-enoic Acid] the same measures were above 1 µM and 100 to 1000 nM.
For `CNC(=O)c1c(-c2ccc(F)cc2)oc2cc(N(CCOCCOCc3cccc(C(=O)O)c3)S(C)(=O)=O)c(C3CC3)cc12` [Compound 06-7C, 3-[2-(2-{[5-Cyclopropyl-2-(4-fluoro-phenyl)-3-methylcarbamoyl-benzofuran-6-yl]-methanesulfonyl-amino}-ethoxy)-ethoxymethyl]-benzoic Acid] the same measures were 0.1 to 1 µM and below 100 nM.
As for `CNC(=O)c1c(-c2ccc(F)cc2)oc2cc(N(CCOCCOCCOC(C(=O)O)c3ccccc3)S(C)(=O)=O)c(C3CC3)cc12` (centres unmarked) [Compound 25-5, {2-[2-(2-{[5-Cyclopropyl-2-(4-fluoro-phenyl)-3-methylcarbamoyl-benzofuran-6-yl]-methanesulfonyl-amino}-ethoxy)-ethoxy]-ethoxy}-phenyl-acetic Acid], in assay [1] (read-out: IC50), the IC50 was in the range of 0.1 to 1 µM. The compound further came in with an EC50 in assay [2] of 100 to 1000 nM.
For `CNC(=O)c1c(-c2ccc(F)cc2)oc2cc(N(CCOCCOCc3ccc(F)c(C(=O)O)c3)S(C)(=O)=O)c(C3CC3)cc12` [Compound 17A-8A, 5-[2-(2-{[5-Cyclopropyl-2-(4-fluoro-phenyl)-3-methylcarbamoyl-benzofuran-6-yl]-methanesulfonyl-amino}-ethoxy)-ethoxymethyl]-2-fluoro-benzoic Acid] the same measures were 0.1 to 1 µM and below 100 nM.
For `CNC(=O)c1c(-c2ccc(F)cc2)oc2cc(N(CCOCCOCc3ccc(OC)c(C(=O)O)c3)S(C)(=O)=O)c(C3CC3)cc12` [Compound 17B-8, 5-[2-(2-{[5-Cyclopropyl-2-(4-fluoro-phenyl)-3-methylcarbamoyl-benzofuran-6-yl]-methanesulfonyl-amino}-ethoxy)-ethoxymethyl]-2-methoxy-benzoic Acid] the same measures were 0.1 to 1 µM and 100 to 1000 nM.
`CNC(=O)c1c(-c2ccc(F)cc2)oc2cc(N(CCOCCOCc3cccc(C(=O)/C=C(\O)C(=O)O)c3)S(C)(=O)=O)c(C3CC3)cc12` [Compound 02-10A, 4-{3-[2-(2-{[5-Cyclopropyl-2-(4-fluoro-phenyl)-3-methylcarbamoyl-benzofuran-6-yl]-methanesulfonyl-amino}-ethoxy)-ethoxymethyl]-phenyl}-2-hydroxy-4-oxo-but-2-enoic Acid]: the IC50 in assay [1] (read-out: IC50) fell in the range of 0.1 to 1 µM. The compound further returned an EC50 in assay [2] below 100 nM.
Regarding `CNC(=O)c1c(-c2ccc(F)cc2)oc2cc(N(CCOCCOCCOCC(=O)O)S(C)(=O)=O)c(C3CC3)cc12` [Compound 23-6A, {2-[2-(2-{[5-Cyclopropyl-2-(4-fluoro-phenyl)-3-methylcarbamoyl-benzofuran-6-yl]-methanesulfonyl-amino}-ethoxy)-ethoxy]-ethoxy}-acetic Acid], the IC50 in assay [1] (read-out: IC50) fell in the range of 0.1 to 1 µM. The same compound showed an EC50 in assay [2] of 100 to 1000 nM.
For `CNC(=O)c1c(-c2ccc(F)cc2)oc2cc(N(CCOC(=O)CNC(=O)CCCC(=O)O)S(C)(=O)=O)c(C3CC3)cc12` [Compound 08-6, 4-[(2-{[5-Cyclopropyl-2-(4-fluoro-phenyl)-3-methylcarbamoyl-benzofuran-6-yl]-methanesulfonyl-amino}-ethoxycarbonylmethyl)-carbamoyl]-butyric Acid], in assay [1] (IC50 (μM)), the IC50 is 0.1 to 1 µM. The same compound gave an EC50 in assay [2] of 100 to 1000 nM.
